Broadly, the IC50 is the concentration that inhibits the measured activity by half.

The source of these data is patent US11780821B2, “Inhibitors of fibroblast activation protein” (Praxis Biotech LLC, priority 2017, dated 2023).

Data set [1] has as its target T1, recombinant mouse FAPα (rmFAPα) (Mus musculus, UniProt P97321).
T1 construct: purchased R&S system (so in the source)
T1 sequence (P97321 1-761): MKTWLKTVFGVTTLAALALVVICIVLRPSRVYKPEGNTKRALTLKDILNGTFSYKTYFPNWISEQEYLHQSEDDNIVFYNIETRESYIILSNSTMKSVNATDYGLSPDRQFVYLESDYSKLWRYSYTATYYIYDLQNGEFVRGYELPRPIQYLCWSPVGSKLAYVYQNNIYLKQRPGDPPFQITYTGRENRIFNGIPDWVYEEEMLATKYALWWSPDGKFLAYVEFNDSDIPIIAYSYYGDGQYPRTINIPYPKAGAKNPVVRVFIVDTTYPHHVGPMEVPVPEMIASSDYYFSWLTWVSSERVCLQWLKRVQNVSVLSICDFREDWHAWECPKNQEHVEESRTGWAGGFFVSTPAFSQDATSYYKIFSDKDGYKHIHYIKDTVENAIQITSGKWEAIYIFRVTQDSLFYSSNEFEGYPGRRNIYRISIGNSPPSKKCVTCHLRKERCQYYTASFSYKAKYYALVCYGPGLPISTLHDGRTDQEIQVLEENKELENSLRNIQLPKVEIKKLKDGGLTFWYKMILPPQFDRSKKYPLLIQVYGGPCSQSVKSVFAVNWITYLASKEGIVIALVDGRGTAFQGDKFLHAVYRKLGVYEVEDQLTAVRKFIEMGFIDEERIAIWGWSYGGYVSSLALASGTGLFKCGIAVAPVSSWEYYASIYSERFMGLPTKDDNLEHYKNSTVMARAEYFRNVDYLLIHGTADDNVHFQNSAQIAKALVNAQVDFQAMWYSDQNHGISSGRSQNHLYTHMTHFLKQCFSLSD
Description: FAPα enzymatic exopeptidase (dipeptidase) activity assay. Type of data set: biochemical. The conditions noted are these: 1 μM test compound; Z-Gly-Pro-AMC substrate. The protocol: FAPα enzymatic exopeptidase (dipeptidase) activity assay. […] 7-Amino-4-Methylcoumarin (AMC) release was detected by measuring fluorescence at Ex/Em 380/460 nm using a Multifunction Microplate Reader (Synergy 4, Biotek). All measurements were carried out in duplicate. […] For the calculations, the average measurements from reactions containing only vehicle and substrate, without enzyme, were used as a blank and were subtracted from the rest of the measurements. Percent inhibition was calculated using the average measurements from reactions containing vehicle, enzyme, and substrate as the maximum of enzymatic activity. Measurements were performed as a single point.

Data set [2] deals with T2, recombinant human FAPα (rhFAPα) (Homo sapiens, UniProt Q12884).
T2 construct: purchased R&S system (so in the source)
T2 sequence (Q12884 1-760): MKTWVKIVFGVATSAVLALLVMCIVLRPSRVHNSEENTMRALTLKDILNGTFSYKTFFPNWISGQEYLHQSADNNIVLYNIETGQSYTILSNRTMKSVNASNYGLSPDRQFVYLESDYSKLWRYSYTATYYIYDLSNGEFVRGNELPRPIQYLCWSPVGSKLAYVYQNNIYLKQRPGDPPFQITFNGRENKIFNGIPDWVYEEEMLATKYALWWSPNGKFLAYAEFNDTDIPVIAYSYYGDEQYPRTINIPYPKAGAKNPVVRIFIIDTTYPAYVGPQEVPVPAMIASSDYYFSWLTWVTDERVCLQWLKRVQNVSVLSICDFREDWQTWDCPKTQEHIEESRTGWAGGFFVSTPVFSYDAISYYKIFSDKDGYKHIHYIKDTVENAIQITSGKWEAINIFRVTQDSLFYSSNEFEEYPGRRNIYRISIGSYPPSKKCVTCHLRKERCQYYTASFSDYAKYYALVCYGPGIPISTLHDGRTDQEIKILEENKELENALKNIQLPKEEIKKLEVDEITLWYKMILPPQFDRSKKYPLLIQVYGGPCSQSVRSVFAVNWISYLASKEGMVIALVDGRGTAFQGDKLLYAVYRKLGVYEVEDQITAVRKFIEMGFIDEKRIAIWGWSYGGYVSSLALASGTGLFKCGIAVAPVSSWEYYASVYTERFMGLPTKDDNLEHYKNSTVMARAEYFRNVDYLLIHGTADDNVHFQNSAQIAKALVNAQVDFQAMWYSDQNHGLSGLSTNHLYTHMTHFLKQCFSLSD
Described as above. The format is biochemical. The settings on record: 1 μM test compound; Z-Gly-Pro-AMC substrate.

Data set [3] deals with T3, recombinant mouse DPPIV (rmDPPIV) (Mus musculus, UniProt P28843).
T3 construct: purchased R&S system (so in the source)
Description: DPPIV enzymatic activity assay. Type of data set: biochemical. The conditions noted are these: H-Gly-Pro-pNA substrate.

Data set [4] deals with T4, recombinant mouse PREP (rmPREP) (Mus musculus, UniProt Q9QUR6).
T4 construct: purchased R&S system (so in the source)
Briefly: PREP enzymatic activity assay. The settings on record: Z-Gly-Pro-AMC substrate. Type of data set: biochemical. How it is done: 7-Amino-4-Methylcoumarin (AMC) release was detected by measuring fluorescence at Ex/Em 380/460 nm using a Multifunction Microplate Reader (Synergy 4, Biotek). All measurements were carried out in triplicate.

Data set [5] addresses T5, mouse plasma DPPIV (Mus musculus, UniProt P28843).
T5 construct: from tissue; host or cells: mouse plasma (C57BL/6, EDTA)
Description: DPPIV enzymatic activity in mouse plasma. Type of data set: biochemical. The settings on record: C57BL/6 mouse plasma; H-Gly-Pro-AMC substrate. The protocol: Approximately 500 μL of whole blood from one C57BL/6 mouse was harvested into BD Microtainer® tubes (K2) EDTA (#365974, Becton Dickinson and Co.) via terminal cardiac puncture. The blood sample was immediately centrifuged at approximately 9000 g at 4° C. for 5 minutes. Plasma was separated and stored at −80° C. in aliquots of 300 μL. To assay baseline DPPIV enzymatic exopeptidase activity, 5 μL of thawed, mouse plasma was diluted (1:5) in buffer (100 mM Tris-HCl, 400 mM NaCl, 50 mM salicylic acid, 1 mM EDTA, pH 7.5) and mixed with 35 µL of the same buffer before being pre-incubated with different concentrations of 10 μL of test compounds or DMSO vehicle for 15 minutes at 37° C. in 96-well black plates (Nunc, #237108). After pre-incubation, 50 μL of 200 μM dipeptide substrate H-Gly-Pro-AMC (Bachem, #L-1225) was added to the mixture. The assay was performed for 1 hour at 37° C. 7-Amino-4-Methylcoumarin (AMC) release was detected measuring fluorescence at an excitation wavelength of 360 nm and an emission wavelength of 460 nm using a Multifunction Microplate Reader (Synergy 4, Biotek). All measurements were carried out at least in duplicate.

The nature of data set [6]: Intravenous and oral bioavailability in mice. Type of data set: in vivo. The protocol: The pharmacokinetic properties of exemplary test compounds were assayed after administration of an intravenous (IV) 2 mg/kg or oral (PO) 10 mg/kg single dose in mice. Exemplary test compounds were formulated at 0.4 and 1 mg/ml in a vehicle containing Poly-Ethylene Glycol 200 (PEG200; Cat. No. #P3015, Sigma Aldrich) and distilled water (dH2O) (50/50, v/v) as dosing solutions for intravenous and oral administration, respectively.
C57BL/6j and Balb/c mice, approximately 8-10 weeks old, were obtained from the vivarium Fundación Ciencia & Vida Chile (Santiago, Chile) and maintained in a temperature-controlled room with 12/12 hr light/dark schedule with food and water ad libitum. Animals were acclimated for a minimum period of 4 days upon arrival at the testing facility.
On the day of study, mice were weighed and identified by marking the tail with numbers using a non-toxic permanent marker for designation into the experimental groups (n=3 per group). Each mouse in the IV dosing groups received a systemic bolus of 2 mg/kg dosing solution via the caudal vein.
Non-dosed mice were used to collect samples of zero time points. […] Blood samples were centrifuged immediately at 9,000 g at 4° C. for 5 min and the plasma was separated.
The plasma samples were analyzed by QTRAP 4500 triple quadrupole mass spectrometer (Applied Biosystems SCIEX) in positive or negative ion mode depending on the tested compound and interfaced with an ekspert ultraLC 100-XL UPLC System (eksigent) to determine the concentration of the exemplary test compound. […] The precipitated samples were centrifuged at 6,100 g for 30 min at 4° C. Following centrifugation, an aliquot of each supernatant was transferred into a clean sample vial and diluted with two volumes of aqueous mobile phase (0.2% formic acid in water). Samples were injected onto a reverse phase analytical column (YMC Triart C18; 2.0×50 mm; 1.9 μm; YMC CO) and eluted with a gradient of 0.1 or 0.2% formic acid in Acetonitrile. Test compound and internal standard were monitored by a multiple reaction monitoring (MRM) experiment using Analyst software (v1.6.2, Applied Biosystems SCIEX). Quantitation was conducted using MultiQuant software (v2.1, Applied Biosystems SCIEX) and the resulting calibration curve was fitted with a linear or quadratic regression and 1/x weighting.
IV and PO PK parameters were calculated from the concentration-time data using Phoenix WinNonlin software (v6.4, Certara, Princeton, N.J.) by noncompartmental analysis. Area under the concentration-time curve (AUClast) was estimated using a log-linear trapezoidal method, from the dosing time to the last measurable concentration.

Data set [7] has as its system a variety of cancers. The settings on record: Phase II, combination with standard cytotoxic chemotherapy; cited from earlier work.
The conditions of data set [8]: standing in pH 7.8; cyclization; cited from earlier work.

T3 sequence (P28843 whole entry): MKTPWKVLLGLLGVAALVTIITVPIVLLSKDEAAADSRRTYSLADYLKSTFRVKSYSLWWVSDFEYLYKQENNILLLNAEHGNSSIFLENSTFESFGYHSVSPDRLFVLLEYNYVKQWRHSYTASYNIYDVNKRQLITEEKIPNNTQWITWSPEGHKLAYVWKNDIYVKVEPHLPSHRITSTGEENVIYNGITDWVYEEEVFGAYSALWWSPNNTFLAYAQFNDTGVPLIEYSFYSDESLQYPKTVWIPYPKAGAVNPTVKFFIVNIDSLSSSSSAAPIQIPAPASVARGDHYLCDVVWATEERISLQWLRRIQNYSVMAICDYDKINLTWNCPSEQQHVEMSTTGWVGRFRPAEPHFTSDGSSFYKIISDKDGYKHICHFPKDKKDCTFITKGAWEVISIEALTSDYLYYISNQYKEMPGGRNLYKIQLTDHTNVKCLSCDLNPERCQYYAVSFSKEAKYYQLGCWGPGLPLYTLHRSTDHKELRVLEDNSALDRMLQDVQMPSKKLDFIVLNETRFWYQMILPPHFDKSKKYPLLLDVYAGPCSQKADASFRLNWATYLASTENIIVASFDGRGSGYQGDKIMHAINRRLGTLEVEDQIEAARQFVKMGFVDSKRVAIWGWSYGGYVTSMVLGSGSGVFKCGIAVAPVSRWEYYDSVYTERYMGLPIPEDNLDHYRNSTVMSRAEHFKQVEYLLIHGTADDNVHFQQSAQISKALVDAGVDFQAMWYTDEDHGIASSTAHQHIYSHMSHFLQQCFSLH
T5 sequence (P28843 37-760 limits assumed): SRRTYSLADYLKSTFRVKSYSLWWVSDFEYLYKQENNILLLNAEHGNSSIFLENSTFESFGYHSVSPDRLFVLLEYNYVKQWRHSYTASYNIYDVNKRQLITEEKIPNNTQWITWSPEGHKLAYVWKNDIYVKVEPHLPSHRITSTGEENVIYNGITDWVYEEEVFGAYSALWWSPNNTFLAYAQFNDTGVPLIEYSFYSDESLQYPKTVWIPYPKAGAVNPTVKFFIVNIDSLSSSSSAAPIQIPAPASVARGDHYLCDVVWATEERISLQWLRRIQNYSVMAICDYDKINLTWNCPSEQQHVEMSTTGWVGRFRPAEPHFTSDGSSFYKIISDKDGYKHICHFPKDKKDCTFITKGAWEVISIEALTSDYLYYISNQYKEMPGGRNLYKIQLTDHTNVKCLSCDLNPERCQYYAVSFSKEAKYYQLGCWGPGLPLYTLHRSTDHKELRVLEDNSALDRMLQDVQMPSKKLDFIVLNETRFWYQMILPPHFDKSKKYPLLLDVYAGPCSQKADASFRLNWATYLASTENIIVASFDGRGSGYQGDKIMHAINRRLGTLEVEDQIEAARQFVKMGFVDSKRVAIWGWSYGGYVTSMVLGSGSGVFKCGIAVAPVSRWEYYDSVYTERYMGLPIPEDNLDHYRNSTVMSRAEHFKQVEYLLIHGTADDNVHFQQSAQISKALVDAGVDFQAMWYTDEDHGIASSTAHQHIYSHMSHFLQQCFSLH
T4 sequence (Q9QUR6 whole entry): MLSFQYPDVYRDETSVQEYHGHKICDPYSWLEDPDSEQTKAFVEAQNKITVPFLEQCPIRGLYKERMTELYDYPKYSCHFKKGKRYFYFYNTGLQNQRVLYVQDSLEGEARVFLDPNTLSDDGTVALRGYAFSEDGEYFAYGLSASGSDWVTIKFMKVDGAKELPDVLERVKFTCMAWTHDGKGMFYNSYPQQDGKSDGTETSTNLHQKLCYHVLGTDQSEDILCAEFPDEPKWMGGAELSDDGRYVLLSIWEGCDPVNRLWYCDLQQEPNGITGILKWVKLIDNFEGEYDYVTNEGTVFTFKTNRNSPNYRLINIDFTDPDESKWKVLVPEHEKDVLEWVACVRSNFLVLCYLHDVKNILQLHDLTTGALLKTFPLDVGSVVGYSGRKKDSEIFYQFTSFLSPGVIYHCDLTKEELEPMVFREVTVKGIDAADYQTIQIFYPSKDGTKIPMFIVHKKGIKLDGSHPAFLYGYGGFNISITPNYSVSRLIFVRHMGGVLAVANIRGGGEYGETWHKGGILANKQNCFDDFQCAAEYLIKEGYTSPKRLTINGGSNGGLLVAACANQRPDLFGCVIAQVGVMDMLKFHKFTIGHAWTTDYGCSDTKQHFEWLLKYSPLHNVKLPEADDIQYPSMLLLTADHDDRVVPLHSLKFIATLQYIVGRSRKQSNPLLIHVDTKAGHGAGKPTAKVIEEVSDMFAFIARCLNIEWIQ

Regarding `N#CC1CC(F)(F)CN1C(=O)CNC(=O)c1ccnc2ccccc12` (stereo not drawn) [Ref. Comp., reference compound], the “rmFAPα (% exo inh @ 1 μM)” value in data set [1] is on record as “+++ (+++ refers to > 50% inhibition at 1 μM test compound)”. Moreover, the “rhFAPα (% exo inh @ 1 μM)” value in data set [2] is “+++ (+++ refers to > 50% inhibition at 1 μM test compound)”. Further, the IC50 in data set [3], in data set [4] and in data set [5] was above 10 µM in each case. The “F (bioavailability)” value in data set [6] (PO 10 mg/kg vs IV 2 mg/kg) worked out at 39.7%. This molecule registered an AUClast in data set [6] (oral (PO) 10 mg/kg single dose, plasma) of 1.12 µg·h/mL.

Regarding `CC(C)[C@H](N)C(=O)N1CCC[C@H]1B(O)O` [Val-boroPro], in data set [7], the clinical efficacy endpoints result is on record as “endpoints for efficacy were not met”. Moreover, in data set [8], the “stability of protease inhibitory activity” value is given as “rapidly loses protease inhibitory activity”.
